Patent US9440962B2, “Benzisoxazoles” (Hoffmann-La Roche Inc., priority 2012, dated 2016)

How the values were obtained:
[1] = test system: human embryonic stem cell derived neural stem cells (NSCs); assay: Neural stem cell proliferation assay (neurogenesis assay, ATP levels by CellTiterGlo); type: cell-based; settings: 96 h, compound concentration at which 150% activity of control (100%) is reached, ATP levels after 4 days incubation, dose response 8 μM to 8 nM
Protocol: Neural Stem Cell Proliferation Assay
Neurogenic properties of small molecules are determined based on the proliferation of human embryonic stem cell derived neural stem cells (NSCs) which were derived via a dual smad inhibition as previously described (Chambers, S. M., et al., Highly efficient neural conversion of human ES and iPS cells by dual inhibition of SMAD signaling, Nature biotechnology, 2009. 27(3): p. 275-80.)
Compounds respond is measured by the increase in cells based on ATP levels (Promega:CellTiterGlo®) after an incubation period of 4 days.
NSCs are thawed and expanded over 3 passages. On the 14th day, NSCs are seeded in Polyornithin/Laminin coated 384 well plates at a cell density of 21′000 cells/cm^2 in a media volume of 38 μl.
4 hours after cell seeding, compound solutions are added at a volume of 2 μl. Stock solutions of the compounds (water, 5% DMSO) are diluted to obtain a dose response (11 points, dilution factor is 2), ranging from 8 μM to 8 nM. Controls are run to consistently determine the neurogenic properties of the cells: • Negative (neutral) control is cell culture Media (final DMSO concentration: 0.25%). Positive controls are: • 1. cell culture Media+100 ng/ml FGF2 (final DMSO concentration: 0.1%) • 2. cell culture Media+20 ng/ml EGF (final DMSO concentration: 0.1%) • 3. cell culture Media+100 ng/ml Wnt3a (final DMSO concentration: 0.1%)
After 4 days incubation at 37° C., 5% CO2, the amount of ATP per well is quantified. The ATP concentration is proportional to the cell number. ATP is quantified by using the Promega CellTiterGlo® kit. The CellTiterGlo® reagents contain a cell lysis buffer, a thermo stable luciferase (UltraGlo™ recombinant luciferase), magnesium and luciferin. Luciferin reacts with ATP producing oxyluciferin, AMP and light. The luminescence signal is proportional to the ATP content.
The value of negative (neutral) control is determined for each assay plate by taking the average of 16 negative control wells. The neurogenic compound response is calculated for each compound as (compound/Negative Control)* 100.
The values of EC150 from the dose response curve are determined for each test compound. The EC150 is the compound concentration at which 150% activity of control (100%) is reached.

Compound	melting point [°C]	EC (150% of control) [1] [µM]
Fc1ccc(-c2onc3ccc(-c4ccnn4-c4ccc(F)cc4)cc23)cc1 [Example 8, 3-(4-Fluoro-phenyl)-5-[2-(4-fluoro-phenyl)-2H-pyrazol-3-yl]-benzo[c]isoxazole]	159	0.25
Cc1ccc(-c2onc3ccc(-c4ccnn4-c4ccc(F)cc4)cc23)cc1 [Example 11, 5-[2-(4-Fluoro-phenyl)-2H-pyrazol-3-yl]-3-p-tolyl-benzo[c]isoxazole]	158	0.23
Fc1ccc(-n2nccc2-c2ccc3noc(-c4ccc(Cl)cc4)c3c2)cc1 [Example 12, 3-(4-Chloro-phenyl)-5-[2-(4-fluoro-phenyl)-2H-pyrazol-3-yl]-benzo[c]isoxazole]	188	0.26
COc1ccc(-c2onc3ccc(-c4ccnn4-c4ccc(F)cc4)cc23)cc1 [Example 13, 5-[2-(4-Fluoro-phenyl)-2H-pyrazol-3-yl]-3-(4-methoxy-phenyl)-benzo[c]isoxazole]	153	0.39
Cc1ccc(-n2nccc2-c2ccc3noc(-c4ccc(F)cc4)c3c2)cc1 [Example 14, 3-(4-Fluoro-phenyl)-5-(2-p-tolyl-2H-pyrazol-3-yl)-benzo[c]isoxazole]	173	0.091
Cc1ccc(-c2onc3ccc(-c4ccnn4-c4ccc(C)cc4)cc23)cc1 [Example 16, 3-p-Tolyl-5-(2-p-tolyl-2H-pyrazol-3-yl)-benzo[c]isoxazole]	190	0.055
Cc1ccc(-n2nccc2-c2ccc3noc(-c4ccc(C(F)(F)F)cc4)c3c2)cc1 [Example 17, 5-(2-p-Tolyl-2H-pyrazol-3-yl)-3-(4-trifluoromethyl-phenyl)-benzo[c]isoxazole]	173	1.13
Cc1ccc(-n2nccc2-c2ccc3noc(-c4ccc(Cl)cc4)c3c2)cc1 [Example 18, 3-(4-Chloro-phenyl)-5-(2-p-tolyl-2H-pyrazol-3-yl)-benzo[c]isoxazole]	204	0.093
COc1ccc(-c2onc3ccc(-c4ccnn4-c4ccc(C)cc4)cc23)cc1 [Example 19, 3-(4-Methoxy-phenyl)-5-(2-p-tolyl-2H-pyrazol-3-yl)-benzo[c]isoxazole]	165	0.045
COc1ccc(-n2nccc2-c2ccc3noc(-c4ccc(F)cc4)c3c2)cc1 [Example 20, 3-(4-Fluoro-phenyl)-5-[2-(4-methoxy-phenyl)-2H-pyrazol-3-yl]-benzo[c]isoxazole]	179	0.36
COc1ccc(-n2nccc2-c2ccc3noc(-c4ccc(C)cc4)c3c2)cc1 [Example 22, 5-[2-(4-Methoxy-phenyl)-2H-pyrazol-3-yl]-3-p-tolyl-benzo[c]isoxazole]	159	0.18
COc1ccc(-n2nccc2-c2ccc3noc(-c4ccc(Cl)cc4)c3c2)cc1 [Example 23, 3-(4-Chloro-phenyl)-5-[2-(4-methoxy-phenyl)-2H-pyrazol-3-yl]-benzo[c]isoxazole]	177	0.31
COc1ccc(-c2onc3ccc(-c4ccnn4-c4ccc(OC)cc4)cc23)cc1 [Example 24, 3-(4-Methoxy-phenyl)-5-[2-(4-methoxy-phenyl)-2H-pyrazol-3-yl]-benzo[c]isoxazole]	133	0.26
Fc1ccc(-c2onc3ccc(-c4ccnn4-c4ccc(Cl)cc4)cc23)cc1 [Example 25, 5-[2-(4-Chloro-phenyl)-2H-pyrazol-3-yl]-3-(4-fluoro-phenyl)-benzo[c]isoxazole]	154	0.32
Clc1ccc(-c2onc3ccc(-c4ccnn4-c4ccc(Cl)cc4)cc23)cc1 [Example 27, 3-(4-Chloro-phenyl)-5-[2-(4-chloro-phenyl)-2H-pyrazol-3-yl]-benzo[c]isoxazole]	222	0.46

The next lines start with results.

melting point [°C]	Compound	EC (150% of control) [1] [µM]
171	Fc1ccc(-c2onc3ccc(-c4ccnn4-c4ccccc4F)cc23)cc1 [Example 1, 3-(4-Fluoro-phenyl)-5-[2-(2-fluoro-phenyl)-2H-pyrazol-3-yl]-benzo[c]isoxazole]	0.12
186	Fc1cccc(-c2onc3ccc(-c4ccnn4-c4ccccc4F)cc23)c1 [Example 2, 3-(3-Fluoro-phenyl)-5-[2-(2-fluoro-phenyl)-2H-pyrazol-3-yl]-benzo[c]isoxazole]	0.29
173	Cc1ccc(-c2onc3ccc(-c4ccnn4-c4ccccc4F)cc23)cc1 [Example 3, 5-[2-(2-Fluoro-phenyl)-2H-pyrazol-3-yl]-3-p-tolyl-benzo[c]isoxazole]	0.12
156	Fc1ccccc1-n1nccc1-c1ccc2noc(-c3ccc(C(F)(F)F)cc3)c2c1 [Example 4, 5-[2-(2-Fluoro-phenyl)-2H-pyrazol-3-yl]-3-(4-trifluoromethyl-phenyl)-benzo[c]isoxazole]	0.92
191	Fc1ccccc1-n1nccc1-c1ccc2noc(-c3ccc(Cl)cc3)c2c1 [Example 5, 3-(4-Chloro-phenyl)-5-[2-(2-fluoro-phenyl)-2H-pyrazol-3-yl]-benzo[c]isoxazole]	0.033
134	COc1ccc(-c2onc3ccc(-c4ccnn4-c4ccccc4F)cc23)cc1 [Example 6, 5-[2-(2-Fluoro-phenyl)-2H-pyrazol-3-yl]-3-(4-methoxy-phenyl)-benzo[c]isoxazole]	0.073
202	Fc1ccccc1-n1nccc1-c1ccc2noc(-c3ccc(Br)cc3)c2c1 [Example 7, 3-(4-Bromo-phenyl)-5-[2-(2-fluoro-phenyl)-2H-pyrazol-3-yl]benzo[c]isoxazole]	0.054
175	Fc1ccc(-c2onc3ccc(-c4ccnn4-c4cccc(F)c4)cc23)cc1 [Example 9, 3-(4-Fluoro-phenyl)-5-[2-(3-fluoro-phenyl)-2H-pyrazol-3-yl]-benzo[c]isoxazole]	2.8
176	Fc1ccc(-n2nccc2-c2ccc3noc(-c4cccc(F)c4)c3c2)cc1 [Example 10, 3-(3-Fluoro-phenyl)-5-[2-(4-fluoro-phenyl)-2H-pyrazol-3-yl]-benzo[c]isoxazole]	0.56
207	Cc1ccc(-n2nccc2-c2ccc3noc(-c4cccc(F)c4)c3c2)cc1 [Example 15, 3-(3-Fluoro-phenyl)-5-(2-p-tolyl-2H-pyrazol-3-yl)-benzo[c]isoxazole]	0.14
203	COc1ccc(-n2nccc2-c2ccc3noc(-c4cccc(F)c4)c3c2)cc1 [Example 21, 3-(3-Fluoro-phenyl)-5-[2-(4-methoxy-phenyl)-2H-pyrazol-3-yl]-benzo[c]isoxazole]	0.51
184	Fc1cccc(-c2onc3ccc(-c4ccnn4-c4ccc(Cl)cc4)cc23)c1 [Example 26, 5-[2-(4-Chloro-phenyl)-2H-pyrazol-3-yl]-3-(3-fluoro-phenyl)-benzo[c]isoxazole]	1.3
